Data set [1] has as its system SMN2 minigene (full length SMN2 minigene mRNA containing SMN2 exon 7). Kind of data set: SMN2 minigene mRNA splicing RT-qPCR assay in cultured cells. The following applies: Homo sapiens, HEK293-H; HEK293H cells stably transfected with SMN2-A minigene; 24 hours; 7-point concentration curve; 1.5-fold relative to vehicle-treated cells; read-out: EC1.5x for production of full length SMN2 mRNA. In kind it is cell-based, human. The gist of the method:
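Lysates → one-step RT-qPCR, minigene-specific primers (0.4 μM final) + GAPDH multiplex, 40 cycles. FL/GAPDH vs DMSO; EC1.5x, star-binned.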
(In qPCR the cycle at which signal appears reflects the starting amount.)

The test system of another data set is Smn protein. As to the kind of experiment: Smn protein assay in cultured cells (SMN HTRF). In kind it is cell-based, human. The following applies: 48 hours; for maximum fold (Fold) increase of Smn protein: SMA patient fibroblast cells, 7-point concentration data, fold increase relative to vehicle control (SMN HTRF); for EC1.5x (concentration giving 1.5-fold Smn protein increase): SMA Type 1 patient fibroblast cells (GM03813), 7-point concentration curve, SMN HTRF, concentration producing 1.5 times Smn protein vs DMSO vehicle control, read-out: EC1.5x for Smn protein expression. The gist of the method:
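Smn in SMA fibroblast lysates, measured by anti-SMN HTRF after 48 h compound exposure; EC1.5x from fold change over vehicle.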
(In general: TR-FRET usually uses a lanthanide donor and a delayed reading to cut background.)

A word on the melting point: it is the temperature, or range, at which the solid turns liquid. For the compound `CN1CCN(c2cc(F)c3cc(-c4nc5ccccc5[nH]4)c(=O)oc3c2)CC1` [Compound 370, 3-(1H-benzimidazol-2-yl)-5-fluoro-7-(4-methylpiperazin-1-yl)-2H-chromen-2-one], the melting point is 281 to 284 °C. Moreover, the EC (1.5-fold) in data set [1] lay within 0.3 to 1 µM. The “maximum fold (Fold) increase of Smn protein” value (“maximum fold (Fold) increase” for short) with Smn protein is reported as “* (maximum fold increase of ≤1.2)”.
As for `Cc1cn2cc(-c3cc4ccc(N5C[C@H]6CCN(C)[C@H]6C5)cc4oc3=O)nc2c(C)n1` [Compound 704, 3-(6,8-dimethylimidazo[1,2-a]pyrazin-2-yl)-7-[(3aR,6aR)-1-methylhexahydropyrrolo[3,4-b]pyrrol-5(1H)-yl]-2H-chromen-2-one], the melting point was in the range of 255 to 263 °C. For the same compound, the EC (1.5-fold) in data set [1] was less than 0.1 µM. Also, in the data set on Smn protein, the EC1.5x (concentration giving 1.5-fold Smn protein increase) was less than 300 nM; the “maximum fold (Fold) increase” value was “**** (fold increase between >1.5 and ≤1.65)”.
On to `COc1cc(OC)cc(-c2cc3ccc(N4CCCN(C)CC4)cc3oc2=O)c1` [Compound 411, 3-(3,5-dimethoxyphenyl)-7-(4-methyl-1,4-diazepan-1-yl)-2H-chromen-2-one], for which the melting point lay in the range of 151 to 153 °C. In addition, in data set [1], the EC (1.5-fold) was 3 to 30 µM. The “maximum fold (Fold) increase” value in the data set on Smn protein was “* (maximum fold increase of ≤1.2)”.
For the compound `Cc1nc(Cl)cn2cc(-c3cc4ccc(N5CCN6CCC[C@@H]6C5)cc4oc3=O)nc12` [Compound 710, 3-(6-chloro-8-methylimidazo[1,2-a]pyrazin-2-yl)-7-[(8aR)-hexahydropyrrolo[1,2-a]pyrazin-2(1H)-yl]-2H-chromen-2-one], the melting point lay in the range of 268 to 272 °C. In data set [1], the EC (1.5-fold) is less than 0.1 µM. In the data set with Smn protein, the “maximum fold (Fold) increase” value was “** (fold increase between >1.2 and ≤1.35)”.
In turn, `Cc1cn2cc(-c3cc4ccc(N5CCN(CCO)CC5)cc4oc3=O)nc2c(C)n1` [Compound 654, 3-(6,8-dimethylimidazo[1,2-a]pyrazin-2-yl)-7-[4-(2-hydroxyethyl)piperazin-1-yl]-2H-chromen-2-one] showed a melting point of 231 to 233 °C. Further, the EC (1.5-fold) in data set [1] is less than 0.1 µM. In the data set on Smn protein, the EC1.5x (concentration giving 1.5-fold Smn protein increase) is less than 300 nM; the “maximum fold (Fold) increase” value was “**** (fold increase between >1.5 and ≤1.65)”.
The compound `Cc1csc2nc(-c3cc4ccc(N5CCCN(C)CC5)cc4oc3=O)cn12` [Compound 179, 7-(4-methyl-1,4-diazepan-1-yl)-3-(3-methylimidazo[2,1-b][1,3]thiazol-6-yl)-2H-chromen-2-one] displayed a melting point of 182 to 185 °C. In addition, the EC (1.5-fold) in data set [1] is 1 to 3 µM. For the same compound, the “maximum fold (Fold) increase” value with Smn protein was “*** (fold increase between >1.35 and ≤1.5)”.
`COc1cc(-c2cc3ccc(N4CCN(C)CC4)cc3oc2=O)ccn1` [Compound 165, 3-(2-methoxypyridin-4-yl)-7-(4-methylpiperazin-1-yl)-2H-chromen-2-one] had a melting point of 169 to 171 °C. Further, in data set [1], the EC (1.5-fold) lay in the range of 3 to 30 µM. The “maximum fold (Fold) increase” value in the data set with Smn protein is “** (fold increase between >1.2 and ≤1.35)”.
Take `Cc1csc2nc(-c3cc4ccc(N5C[C@@H](C)N[C@@H](C)C5)cc4oc3=O)cn12` [Compound 182, 7-[(3R,5S)-3,5-dimethylpiperazin-1-yl]-3-(3-methylimidazo[2,1-b][1,3]thiazol-6-yl)-2H-chromen-2-one]: the melting point lay within 211 to 215 °C. Moreover, the EC (1.5-fold) in data set [1] is 1 to 3 µM. Further, in the data set on Smn protein, the “maximum fold (Fold) increase” value is “** (fold increase between >1.2 and ≤1.35)”.
The compound `Cl.Cl.O=c1oc2cc(O[C@@H]3CCNC3)ccc2cc1-c1cn2ccsc2n1` [Compound 324, 3-(imidazo[2,1-b][1,3]thiazol-6-yl)-7-[(3R)-pyrrolidin-3-yloxy]-2H-chromen-2-one hydrochloride (1:2)] came in with a melting point of 252 to 256 °C. Moreover, the EC (1.5-fold) in data set [1] is 0.3 to 1 µM. In addition, the “maximum fold (Fold) increase” value with Smn protein was “*** (fold increase between >1.35 and ≤1.5)”.
On to `CN1CCN(c2ccc3cc(-c4cn5cccc(Br)c5n4)c(=O)oc3c2)CC1` [Compound 245, 3-(8-bromoimidazo[1,2-a]pyridin-2-yl)-7-(4-methylpiperazin-1-yl)-2H-chromen-2-one], for which the melting point is 217 to 220 °C. The EC (1.5-fold) in data set [1] is 0.1 to 0.3 µM. Besides, the “maximum fold (Fold) increase” value with Smn protein was “** (fold increase between >1.2 and ≤1.35)”.
In turn, `C[C@H]1CN(c2ccc3cc(-c4ccc(N(C)C)nc4)c(=O)oc3c2)CCN1` [Compound 548, 3-[6-(dimethylamino)pyridin-3-yl]-7-[(3S)-3-methylpiperazin-1-yl]-2H-chromen-2-one] registered a melting point of 194 to 196 °C. Besides, the EC (1.5-fold) in data set [1] was 3 to 30 µM. Also, in the data set on Smn protein, the “maximum fold (Fold) increase” value was “* (maximum fold increase of ≤1.2)”.
The compound `CCN1CCN(c2ccc3cc(-c4cn5cc(C)ncc5n4)c(=O)oc3c2)CC1` [Compound 622, 7-(4-ethylpiperazin-1-yl)-3-(6-methylimidazo[1,2-a]pyrazin-2-yl)-2H-chromen-2-one] registered a melting point of 242 to 255 °C. The EC (1.5-fold) in data set [1] is less than 0.1 µM. For the same compound, in the data set with Smn protein, the EC1.5x (concentration giving 1.5-fold Smn protein increase) is less than 300 nM; the “maximum fold (Fold) increase” value was “**** (fold increase between >1.5 and ≤1.65)”.
In turn, `C[C@H]1CN(c2ccc3cc(-c4cn5cccc(Cl)c5n4)c(=O)oc3c2)CCN1` [Compound 184, 3-(8-chloroimidazo[1,2-a]pyridin-2-yl)-7-[(3S)-3-methylpiperazin-1-yl]-2H-chromen-2-one] registered a melting point of 215 to 217 °C. Moreover, the EC (1.5-fold) in data set [1] was 0.3 to 1 µM. Further, the “maximum fold (Fold) increase” value with Smn protein was “*** (fold increase between >1.35 and ≤1.5)”.
For the compound `Cc1cn2cc(-c3cc4ccc(OCCN5CCCCC5)cc4oc3=O)nc2c(C)n1` [Compound 953, 3-(6,8-dimethylimidazo[1,2-a]pyrazin-2-yl)-7-[2-(piperidin-1-yl)ethoxy]-2H-chromen-2-one], the melting point is 178 to 190 °C. The EC (1.5-fold) in data set [1] is less than 0.1 µM. Further, in the data set on Smn protein, the EC1.5x (concentration giving 1.5-fold Smn protein increase) was less than 300 nM; the “maximum fold (Fold) increase” value is “**** (fold increase between >1.5 and ≤1.65)”.
For the compound `Cc1cn2cc(-c3cc4ccc(N5CCN(CC(C)(C)O)CC5)cc4oc3=O)nc2c(C)n1` [Compound 962, 3-(6,8-dimethylimidazo[1,2-a]pyrazin-2-yl)-7-[4-(2-hydroxy-2-methylpropyl)piperazin-1-yl]-2H-chromen-2-one], the melting point was in the range of 212 to 214 °C. Besides, the EC (1.5-fold) in data set [1] is less than 0.1 µM. Besides, in the data set on Smn protein, the EC1.5x (concentration giving 1.5-fold Smn protein increase) is less than 300 nM and the “maximum fold (Fold) increase” value was “***** (fold increase >1.65)”.
For `Cc1cn2cc(-c3cc4ccc(N5CC[C@H](N(C)C)C5)cc4oc3=O)cc2cn1` [Compound 666, 7-[(3S)-3-(dimethylamino)pyrrolidin-1-yl]-3-(3-methylpyrrolo[1,2-a]pyrazin-7-yl)-2H-chromen-2-one], the melting point lay within 200 to 204 °C. Further, in data set [1], the EC (1.5-fold) is less than 0.1 µM. Also, in the data set on Smn protein, the EC1.5x (concentration giving 1.5-fold Smn protein increase) is less than 300 nM; the “maximum fold (Fold) increase” value is “**** (fold increase between >1.5 and ≤1.65)”.
For `Cc1nc(-c2cc3ccc(N4CCCN(C)CC4)cc3oc2=O)cn1-c1ccccn1` [Compound 453, 7-(4-methyl-1,4-diazepan-1-yl)-3-[2-methyl-1-(pyridin-2-yl)-1H-imidazol-4-yl]-2H-chromen-2-one], the melting point was in the range of 192 to 196 °C. Moreover, the EC (1.5-fold) in data set [1] was 3 to 30 µM. The “maximum fold (Fold) increase” value with Smn protein was “* (maximum fold increase of ≤1.2)”.
As to `Cc1ccn2nc(-c3cc4ccc(N5CCCN(C)CC5)cc4oc3=O)cc2c1` [Compound 310, 7-(4-methyl-1,4-diazepan-1-yl)-3-(5-methylpyrazolo[1,5-a]pyridin-2-yl)-2H-chromen-2-one], the melting point lay within 175 to 177 °C. In addition, the EC (1.5-fold) in data set [1] is 0.3 to 1 µM. For the same compound, the “maximum fold (Fold) increase” value in the data set with Smn protein was “** (fold increase between >1.2 and ≤1.35)”.
As for `Cc1cn2cc(-c3cc4ccc(N5C[C@H]6CNC[C@H]6C5)cc4oc3=O)nc2cn1` [Compound 718, 7-[(3aR,6aS)-hexahydropyrrolo[3,4-c]pyrrol-2(1H)-yl]-3-(6-methylimidazo[1,2-a]pyrazin-2-yl)-2H-chromen-2-one], the melting point fell in the range of 282 to 292 °C. Also, the EC (1.5-fold) in data set [1] was less than 0.1 µM. In the data set with Smn protein, the EC1.5x (concentration giving 1.5-fold Smn protein increase) was less than 300 nM; the “maximum fold (Fold) increase” value was “**** (fold increase between >1.5 and ≤1.65)”.
`C[C@H]1CN(c2cc(F)c3cc(-c4cn5cccc(Cl)c5n4)c(=O)oc3c2)CCN1` [Compound 393, 3-(8-chloroimidazo[1,2-a]pyridin-2-yl)-5-fluoro-7-[(3S)-3-methylpiperazin-1-yl]-2H-chromen-2-one] had a melting point of 268 to 278 °C. Moreover, in data set [1], the EC (1.5-fold) fell in the range of 0.3 to 1 µM. For the same compound, the “maximum fold (Fold) increase” value with Smn protein was “*** (fold increase between >1.35 and ≤1.5)”.
As to `C[C@@H]1CN(c2ccc3cc(-c4nc5c(F)cccc5o4)c(=O)oc3c2)C[C@H](C)N1` [Compound 39, 7-[(3R,5S)-3,5-dimethylpiperazin-1-yl]-3-(4-fluoro-1,3-benzoxazol-2-yl)-2H-chromen-2-one], the melting point lay in the range of 242 to 243 °C. For the same compound, the EC (1.5-fold) in data set [1] is 0.3 to 1 µM. Besides, in the data set with Smn protein, the EC1.5x (concentration giving 1.5-fold Smn protein increase) was in the range of 3000 to 10000 nM; the “maximum fold (Fold) increase” value was “*** (fold increase between >1.35 and ≤1.5)”.

Values taken from patent USRE47689E1, “Compounds for treating spinal muscular atrophy” (PTC Therapeutics, Inc., priority 2011, dated 2019).
